{"source": "paper PMC8330740", "about": "“Discovery of new 3-methylquinoxalines as potential anti-cancer agents and apoptosis inducers targeting VEGFR-2: design, synthesis, and in silico studies” (Journal of Enzyme Inhibition and Medicinal Chemistry, 2021)", "key": {"BAX": {"test_system": "BAX", "test": "Western blot, BAX level in HepG2", "type": "cell-based, human", "conditions": "HepG2, 24 h", "description": "(§1) Compound 11e as a promising member was investigated to evaluate its effect on BAX and Bcl-2 after 24 h of its application on HepG2 cells using Western blot technique.\n(§2) Western blot technique was applied to assess the potential effect of compound 11e on the expression of caspase‐9, caspase‐3, BAX, and Bcl‐2 as reported in Supplementary data[77–79]."}, "caspase-3": {"test_system": "caspase-3", "test": "Western blot, caspase-3 level in HepG2", "type": "cell-based, human", "conditions": "HepG2, 2.1 µM, 24 h; compared to control cells", "description": "(§3) To investigate the effect of the synthesised compounds on caspase-3 and caspase-9 levels, the most promising member 11e was applied on the most sensitive cells (HepG2) at a concentration of 2.1 µM for 24 h.\nas §2"}, "primary rat hepatocytes": {"test_system": "primary rat hepatocytes", "test": "In vitro cytotoxicity against normal cells", "conditions": "Hepatocyte, read-out: IC50 primary rat hepatocytes"}, "Human VEGFR-2": {"target": "Human VEGFR-2 (Homo sapiens, UniProt P35968)", "sequence (P35968 20-1356)": "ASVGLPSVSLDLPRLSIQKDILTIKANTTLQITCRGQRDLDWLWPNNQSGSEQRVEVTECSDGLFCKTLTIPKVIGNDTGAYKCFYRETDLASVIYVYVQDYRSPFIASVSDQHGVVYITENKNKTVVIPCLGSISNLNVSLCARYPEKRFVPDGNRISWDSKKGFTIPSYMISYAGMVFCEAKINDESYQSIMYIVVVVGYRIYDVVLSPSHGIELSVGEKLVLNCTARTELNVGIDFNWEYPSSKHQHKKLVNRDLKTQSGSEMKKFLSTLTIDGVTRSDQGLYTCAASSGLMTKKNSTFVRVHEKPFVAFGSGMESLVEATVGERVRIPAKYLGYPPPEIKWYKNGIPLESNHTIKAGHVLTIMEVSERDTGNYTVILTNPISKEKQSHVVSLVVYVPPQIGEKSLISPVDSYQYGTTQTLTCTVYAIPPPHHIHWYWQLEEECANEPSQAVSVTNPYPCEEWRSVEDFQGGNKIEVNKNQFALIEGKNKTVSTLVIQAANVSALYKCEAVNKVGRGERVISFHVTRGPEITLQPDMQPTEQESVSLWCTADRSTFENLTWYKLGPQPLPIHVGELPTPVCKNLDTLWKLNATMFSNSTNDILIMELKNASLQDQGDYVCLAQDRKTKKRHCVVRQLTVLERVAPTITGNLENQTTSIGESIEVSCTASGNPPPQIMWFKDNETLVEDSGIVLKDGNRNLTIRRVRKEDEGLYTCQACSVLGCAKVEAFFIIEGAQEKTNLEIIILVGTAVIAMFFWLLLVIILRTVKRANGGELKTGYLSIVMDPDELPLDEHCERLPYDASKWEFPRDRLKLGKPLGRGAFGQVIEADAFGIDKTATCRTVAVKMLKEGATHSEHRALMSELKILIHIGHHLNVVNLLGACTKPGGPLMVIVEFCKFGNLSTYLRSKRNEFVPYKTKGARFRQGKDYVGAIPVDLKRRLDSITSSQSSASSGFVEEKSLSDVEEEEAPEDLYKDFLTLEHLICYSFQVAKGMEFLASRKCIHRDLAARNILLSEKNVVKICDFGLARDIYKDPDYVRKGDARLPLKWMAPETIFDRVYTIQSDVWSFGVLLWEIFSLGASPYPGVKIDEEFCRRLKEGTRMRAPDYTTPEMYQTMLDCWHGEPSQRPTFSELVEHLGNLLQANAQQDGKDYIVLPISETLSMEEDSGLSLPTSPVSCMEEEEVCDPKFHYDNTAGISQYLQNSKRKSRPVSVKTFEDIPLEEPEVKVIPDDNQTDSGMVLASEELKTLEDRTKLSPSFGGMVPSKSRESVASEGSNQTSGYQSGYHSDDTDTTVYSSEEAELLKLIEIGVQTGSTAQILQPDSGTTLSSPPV", "test": "In vitro VEGFR-2 kinase assay (Human VEGFR-2 ELISA kit)"}, "[1]": {"test_system": "MCF-7 (human breast cancer cell line)", "test": "MTT cytotoxicity assay, MCF-7", "type": "cell-based", "conditions": "Homo sapiens, MCF7; MTT assay; mean of at least three different experiments", "description": "(§4) In vitro cytotoxicity was carried out using MTT assay protocol[47]^,[65–67] as described in Supplementary data."}, "Bcl-2": {"test_system": "Bcl-2", "test": "Western blot, Bcl-2 level in HepG2", "type": "cell-based, human", "conditions": "HepG2, 24 h", "description": "as §1, §2"}, "HepG2 cells [2]": {"test_system": "HepG2 cells", "test": "Apoptosis analysis (Annexin-V/propidium iodide staining)", "type": "cell-based, human", "conditions": "HepG2, 2.1 µM, 24 h", "description": "To quantify the apoptosis triggered by 11e, Annexin-V/propidium iodide (PI) staining assay was conducted. In such procedure, compound 11e at a concentration of 2.1 µM was applied on HepG2 cells. Then, the media were incubated for 24 h. […] In details, compound 11e induced apoptosis by 49.14% (early apoptosis = 48.87% & late apoptosis = 0.27%), compared to 9.71% in the control cells (early apoptosis = 9.58% & late apoptosis = 0.13%).\nThe effect of compound 11e on cell apoptosis was investigated as described in Supplementary data[74–76]."}, "caspase-9": {"test_system": "caspase-9", "test": "Western blot, caspase-9 level in HepG2", "type": "cell-based, human", "conditions": "HepG2, 2.1 µM, 24 h; compared to control cells", "description": "as §3, §2"}, "HepG2 cells [3]": {"test_system": "HepG2 cells", "test": "Cell cycle analysis (propidium iodide staining, flow cytometry)", "type": "cell-based, human", "conditions": "HepG2, 2.1 µM, 24 h", "description": "HepG2 cells were used as a control without treatment by compound 11e.\nThe effect of compound 11e on cell cycle distribution was performed using propidium iodide (PI) staining technique as described in Supplementary data[71–73]."}, "[4]": {"test_system": "HepG2 (human liver carcinoma cell line)", "test": "MTT cytotoxicity assay, HepG2", "type": "cell-based", "conditions": "mean of at least three different experiments", "description": "as §4"}, "[5]": {"conditions": "mean ± SD of three experiments, listed as Compound 11e"}}, "data": [{"smiles": "COc1cccc(NC(=O)c2ccc(NC(=O)Cn3c(=O)c(C)nc4ccccc43)cc2)c1", "note": "[Compound 11e, N-(3-Methoxyphenyl)-4–(2-(3-methyl-2-oxoquinoxalin-1(2H)-yl)acetamido)benzamide]", "values": [{"measurement": "BAX level increase", "setting": "BAX", "result": 3.14, "unit": "fold"}, {"measurement": "BAX/Bcl-2 ratio", "setting": "BAX", "result": 9.17}, {"measurement": "increase in the level of caspase-3", "setting": "caspase-3", "result": 2.34, "unit": "fold"}, {"measurement": "IC50", "setting": "primary rat hepatocytes", "result": 15, "unit": "µM"}, {"measurement": "IC50", "setting": "Human VEGFR-2", "result": 0.0026, "unit": "µM"}, {"measurement": "IC50", "setting": "[1]", "result": 2.7, "unit": "µM"}, {"measurement": "Bcl-2 level decrease", "setting": "Bcl-2", "result": 3.13, "unit": "fold"}, {"measurement": "induced apoptosis (early + late)", "setting": "HepG2 cells [2]; control 9.71%", "result": 49.14, "unit": "%"}, {"measurement": "Apoptosis Early (Right Bottom)", "setting": "HepG2 cells [2]; mean ± SD of three experiments", "result": 48.87, "unit": "%"}, {"measurement": "Apoptosis Late (Right Top)", "setting": "HepG2 cells [2]; mean ± SD of three experiments", "result": 0.27, "unit": "%"}, {"measurement": "Necrosis (Left Top)", "setting": "HepG2 cells [2]; mean ± SD of three experiments", "result": "0.20 ± 0.03"}, {"measurement": "Apoptosis Early (Right Bottom)", "setting": "HepG2 cells [2]; [5]", "result": "48.87 ± 3.69", "unit": "%"}, {"measurement": "Apoptosis Late (Right Top)", "setting": "HepG2 cells [2]; [5]", "result": "0.27 ± 0.04", "unit": "%"}, {"measurement": "viability at 2.1 µM", "setting": "HepG2 cells [2]; Homo sapiens, mean ± SD of three experiments, read-out: Viable (Left Bottom)", "result": "50.6 ± 3.66", "unit": "%"}, {"measurement": "increase in the level of caspase-9", "setting": "caspase-9", "result": 2.34, "unit": "fold"}, {"measurement": "phase at which HepG2 cell growth is arrested", "setting": "HepG2 cells [3]", "result": "G2/M phase"}, {"measurement": "percentage of cells at the G2/M phase", "setting": "HepG2 cells [3]; control 18.24%", "result": 46.62, "unit": "%"}, {"measurement": "percentage of cells at the S phase", "setting": "HepG2 cells [3]; control 25.48", "result": 31.80, "unit": "%"}, {"measurement": "percentage of cells at G1 phase", "setting": "HepG2 cells [3]; control 55.03%", "result": 20.34, "unit": "%"}, {"measurement": "IC50", "setting": "[4]", "result": 2.1, "unit": "µM"}]}]}
